Experimental data as given in patent US6794395B1, “Substituted indolinones, their manufacture and their use as medicaments” (Boehringer Ingelheim Pharma GmbH & Co. KG, priority 1999, dated 2004).

Legend:
[1] = test system: Human umbilical endothelial cells (HUVEC); assay: Inhibition of VEGF165-stimulated HUVEC proliferation (3H-thymidine incorporation); format: cell-based; conditions: HUVEC proliferation stimulated with 5 ng/ml VEGF165 and 10 μg/ml heparin, 76 h + 16 h 3H-thymidine
Description: Human umbilical endothelial cells (HUVEC) were cultivated in IMDM (Gibco BRL), supplemented with 10% foetal calf serum (FBS) (Sigma), 50 μM of β-mercaptoethanol (Fluka), standard antibiotics, 15 μg/ml of endothelial cell growth factor (ECGS, Collaborative Biomedical Products) and 100 μg/ml of heparin (Sigma) on gelatine-coated culture dishes (0.2% gelatine, Sigma) at 37° C., under 5% CO2 in a water-saturated atmosphere.
In order to investigate the inhibitory activity of the compounds according to the invention the cells were “starved” for 16 hours, i.e. kept in culture medium without growth factors (ECGS+heparin). The cells were detached from the culture dishes using trypsin/EDTA and washed once in serum-containing medium. Then they were seeded out in amounts of 2.5×10^3 cells per well.
The proliferation of the cells was stimulated with 5 ng/ml of VEGF165 (vascular endothelial growth factor; H. Weich, GBF Braunschweig) and 10 μg/ml of heparin. As a control, 6 wells in each dish were not stimulated.
The compounds according to the invention were dissolved in 100% dimethylsulphoxide and added to the cultures in various dilutions as triple measurements, the maximum dimethyl sulphoxide concentration being 0.3%.
The cells were incubated for 76 hours at 37° C., then for a further 16 hours ^3H-thymidine (0.1 μCi/well, Amersham) was added in order to determine the DNA synthesis. Then the radioactively labelled cells were immobilised on filter mats and the radioactivity incorporated was measured in a β-counter. In order to determine the inhibitory activity of the compounds according to the invention the mean value of the non-stimulated cells was subtracted from the mean value of the factor-stimulated cells (in the presence or absence of the compounds according to the invention).
The relative cell proliferation was calculated as a percentage of the control (HUVEC without inhibitor) and the concentration of active substance which inhibits the proliferation of the cells by 50% (IC50) was determined.

[2] = Tolerance test on mice (oral LD50); conditions: mouse, in vivo, read-out: approximate oral LD50
Description: In addition the compound of Example 1 (6) was tested on mice for its tolerance. The approximate oral LD50 for this compound is over 1,000 mg/kg. The compounds of general formula I are therefore well tolerated.

With COc1cc2c(cc1OC)/C(=C(/Nc1ccc(CN(C)Cc3ccccc3)cc1)c1ccccc1)C(=O)N2 [1 (3), 3-(Z)-(1-{4-[(N-benzyl-N-methyl-amino)-methyl)-anilino}-1-phenyl-methylidene)-5,6-dimethoxy-2-indolinone] the IC50 [1] was 270 nM.

In the case of COc1cc2c(cc1OC)/C(=C(/Nc1ccc(N(C)C(=O)CN(C)C)cc1)c1ccccc1)C(=O)N2 [1 (8), 3-(Z)-{1-[4-(N-dimethylaminomethylcarbonyl-N-methyl-amino)-anilino]-1-phenyl-methylidene}-5,6-dimethoxy-2-indolinone], the IC50 [1] is reported as 50 nM.

With COc1cc2c(cc1OC)/C(=C(/Nc1ccc(N(CCN(C)C)C(C)=O)cc1)c1ccccc1)C(=O)N2 [1 (17), 3-(Z)-(1-{4-[N-acetyl-N-(2-dimethylamino-ethyl)-amino]-anilino}-1-phenyl-methylidene)-5,6-dimethoxy-2-indolinone] the IC50 [1] was 40 nM.

In the case of COc1cc2c(cc1OC)/C(=C(/Nc1ccc(N(CCCN(C)C)C(C)=O)cc1)c1ccccc1)C(=O)N2 [1 (18), 3-(Z)-(1-{4-[N-acetyl-N-(3-dimethylamino-propyl)-amino]-anilino}-1-phenyl-methylidene)-5,6-dimethoxy-2-indolinone], the IC50 [1] is reported as 40 nM.

With CC/C(Nc1ccc(N(C)C(=O)CN(C)C)cc1)=C1/C(=O)Nc2cc(OC)c(OC)cc21 [1 (50), 3-(Z)-{1-[4-(N-dimethylaminomethylcarbonyl-N-methylamino)-anilino]-1-ethyl-methylidene}-5,6-dimethoxy-2-indolinone] the IC50 [1] was 830 nM.

Compound COc1cc2c(cc1OC)/C(=C(/Nc1ccc(CN(C)C)cc1)c1ccccc1)C(=O)N2 [Example 1 (6), 3-(Z)-(1-(4-(dimethylaminomethyl)-anilino]-1-phenyl-methylidene}-5,6-dimethoxy-2-indolinone] has an LD50 [2] greater than 1000 mg/kg and an IC50 [1] of 20 nM.

In the case of COc1cc2c(cc1OC)/C(=C(/Nc1ccc(CN3CCCCC3)cc1)c1ccccc1)C(=O)N2 [Example 1, 3-(Z)-{1-[4-(piperidin-1-yl-methyl)-anilino]-1-phenyl-methylidene}-5,6-dimethoxy-2-indolinone], the IC50 [1] is reported as 30 nM.

Work on COc1cc2c(cc1OC)/C(=C(/Nc1ccc(CCN3CCC(C(=O)N(C)C)CC3)cc1)c1ccccc1)C(=O)N2 [Example 3, 3-(Z)-(1-{4-[2-(4-dimethylcarbamoyl-piperidin-1-yl)-ethyl]-anilino}-1-phenyl-methylidene)-5,6-dimethoxy-2-indolinone] yielded an IC50 [1] of 50 nM.

In the case of Nc1ccc2c(c1)NC(=O)/C2=C(\Nc1ccc(CN2CCCCC2)cc1)c1ccccc1 [Example 4, 6-amino-3-(Z)-{1-[4-(piperidin-1-yl-methyl)-anilino]-1-phenyl-methylidene}-2-indolinone], the IC50 [1] is reported as 40 nM.
